{"source": "patent US6835754B2", "about": "“Use of aryl nitrone compounds in methods for treating neuropathic pain” (Renovis, Inc., priority 2001, dated 2004)", "test_system": "male Swiss Webster mice, phenylquinone-induced writhing", "experiment": "Phenylquinone (PQ) writhing assay, % inhibition (Swiss Webster mice)", "assay_type": "in vivo", "conditions": "Mus musculus, standard, read-out: % Inhibition of Writhing Response"}
{"compound": "C[C@@H]1C[C@H]2[C@@H]3CCC4=CC(=O)C=C[C@]4(C)[C@@]3(F)[C@@H](O)C[C@]2(C)[C@@]1(O)C(=O)CO", "note": "[Dexamethasone]", "values": [{"measurement": "inhibition at 1 mg/kg", "setting": "1 mg/kg", "value": 62, "unit": "%"}]}
{"compound": "COc1ccc2c(c1)c(CC(=O)O)c(C)n2C(=O)c1ccc(Cl)cc1", "note": "[Indomethacin]", "values": [{"measurement": "inhibition at 3 mg/kg", "setting": "3 mg/kg", "value": 93, "unit": "%"}]}
